Results on ten compounds are retold here after patent US7678833B2 (Allium Vitalis Incorporated, priority 2006, dated 2010).

One data set has as its system red blood cells (RBCs). Nature of the data set: SAMC incubated with red blood cells: formation and localization of AllylSH and DADS. Format: cell-based. The following applies: for extracellular AllylSH concentration: RBCs with 0.5 mM SAMC. The protocol: For these experiments, 0.25 ml of packed RBCs were suspended in 1.75 ml of phosphate buffer solution (PBS) along with an initial concentration 0.5 mM of SAMC.
The experimental results are graphed in FIG. 3.
The significant effect of glucose is due in part to the energy requirement for the reduction of GSSG to GSH by glutathione reductase, and the need for this “reductive power” to increase the concentration of thiols relative to the concentration of disulfides.

Data set [1] is described as follows: plasma albumin level as measure of plasma thiol/disulfide redox (applicant). Format: in vivo, human. The text has this: Subsequently, an alternative, simpler assay procedure for the thiol/disulfide ratio was found in the literature. Other researchers had determined that the level of plasma albumin correlates linearly with the thiol/disulfide redox (BLOOD92:59, in which paper this redox relationship is expressed by the cystine/thiol ratio).
This method of determination of the plasma redox is of great interest to the applicant because the albumin concentration is one of the standard measurements performed in medical lab reports. This meant that historical data was available that could show the age-related decline in albumin level and confirm its reversal with the administration of dietary supplement capsules containing protein bound allyl mercaptan. It could also be used to confirm that the effect was reversible (by discontinuing the administration of the capsules) and repeatable (by the resumption of the administration of the capsules).
The historical albumin levels for the applicant are as follows:
Over the next 3 months, an experiment was performed to determine whether this effect was reversible, and then to see if the effect was repeatable:
The age related initial decline of approximately −0.05 per year is also shown extended by a dotted trend line. The presumed departure from the trend that occurred when the supplement use was started is indicated by the first solid line segment.

The conditions of data set [2]: n-octanol/water; cited from earlier work.
The conditions of data set [3]: in vivo; cited from earlier work.
The conditions of data set [4]: HIV patients, 7 months, 600 mg/day to 3600 mg/day; cited from earlier work.
The conditions of data set [5]: 8 weeks, 8000 mg/day; cited from earlier work.
The subject of the next data set is cells. The conditions noted are these: cited from earlier work.
The next data set concerns mucosal cell. The conditions noted are these: within 3 hours; cited from earlier work.
For data set [6] the following is noted: first hour after consumption; cited from earlier work.
The next data set has as its system trypsin enzyme inhibitor. The conditions noted are these: soy flour, cysteine 2% by weight, 65 degrees C. for 1 hour; cited from earlier work.
The subject of another data set is acetaminophen. The conditions noted are these: mice, cited from earlier work.
The next data set has as its system heapatocytes. The following applies: hepatocytes exposed to acetaminophen, among 8 cysteine prodrugs tested; cited from earlier work.
For data set [7] the following is noted: cited from earlier work.

Entries after “also recorded” stand apart in the source; their conditions may differ. Like-named read-outs stand apart in the source and are kept apart here.

As to `C=CCS` [AllylSH, AllylThiol], in the data set with red blood cells (RBCs), the membrane permeability entry is given as “membrane permeable”. Also, the “extracellular AllylSH concentration” value is “continued to rise significantly” in the data set with red blood cells (RBCs) (fed glucose) and “no increase in AllylSH after the initial rise” with red blood cells (RBCs) (glucose starved). Further, the albumin level came to 5.1 g/dL in data set [1] (180 mg AllylSH each day); 4.9 g/dL in data set [1] (+1 mo., AllylSH consumption discontinued); 5.0 g/dL in data set [1] (donor one, ~20 mg AllylSH each day); 5.0 g/dL in data set [1] (donor two, ~20 mg AllylSH each day); 4.5 g/dL in data set [1] (second +1 mo., AllylSH consumption still discontinued); 4.7 g/dL in data set [1] (third +1 mo., consumption resumed at 180 mg AllylSH/day). The albumin level in [1] (~5 mg AllylSH/day) turned out to be 4.6 g/dL.
For `C=CCSSCC=C` [DADS, Diallyl Disulfide], in data set [2], the partition coefficient is reported as 25.
Regarding `CC(=O)N[C@@H](CS)C(=O)O` [NAC, N-acetylcysteine], in [3], the toxicity entry is “relatively non-toxic”. Also, the plasma albumin increase result in [4] is recorded as “approximately 5%”. In addition, in data set [5], the toxicity entry is “no reported toxicity” and the “whole blood glutathione increase” value is recorded as “approximately 10%”.
Consider `O=C1N[C@H](C(=O)O)CS1` [OTZ, L-2-Oxo-thiazolidine], for which, in data set [3], the toxicity entry is listed as “relatively non-toxic”.
Turning to `C=CCSSC[C@H](N)C(=O)O` [SAMC, S-AllylMercaptoCysteine], the “intracellular formation of AllylSH” value with red blood cells (RBCs) (RBCs, 0.5 mM SAMC, 10 and 30 minutes, with glucose (10 mM) vs without glucose) is “significantly higher”. Also, the “total glutathione level of cells” value in the data set on cells is “significantly increase; also recorded: significant increases”.
For the compound `Cc1c(C)c2c(c(C)c1O)CC[C@@](C)(CCC[C@H](C)CCC[C@H](C)CCCC(C)C)O2` [alpha-tocopherol, reference compound], the partition coefficient in data set [2] is given as 550.
With `[AsH3]` [arsenic], the “glutathione concentration in the mucosal cell” value in the data set on mucosal cell was “twice the normal concentration”. In addition, the “excreted directly from the liver to the bile” value in data set [6] is approximately 40%.
As to `N[C@@H](CS)C(=O)O` [cysteine, Cysteine], the “deactivation of trypsin enzyme inhibitor” value in the data set on trypsin enzyme inhibitor is “over 90%”.
Turning to D-glucose-L-cysteine [DGC], the figures for the “hepatic injury from acetaminophen administration” value in the data set with acetaminophen (administered 4 hours previously) and with acetaminophen (administered simultaneously) were “significantly reduced” and “not effective”, respectively. The “raising the GSH level” value with heapatocytes is “most effective”.
Take sodium arsenate: the liver glutathione level was 134 micrograms per gram in [7] (protein deficient (6%) rats, control 74) and 123 micrograms per gram in data set [7] (well fed rats (18% protein in the diet), control 88).
